# According to patent US11584765B2 (priority 2017, dated 2023):
# System: C57BL/6 mice
# Experiment: animal or person
# Assay type: in vivo
# Conditions: Mus musculus, sc, 0.5 h, s.c. administration, 30 min, 55° C. water, read-out: ED50 (mg/kg) at 30 min on C57BL/6 mice in Warm-water Tail-flick Test
row,Structure (SMILES),ED50 [mg/kg]
1,CCOCC1(CCc2cccs2)CCN(Cc2cnc(C)s2)CC1 [Compound 254],> 10
2,"CCOC[C@@]1(COCc2ccccc2)CCN(C(C)(C)c2ccc(C)nc2)C1.Cl [Compound 458, (R)-5-(2-(3-((benzyloxy)methyl)-3-(ethoxy-methyl)pyrrolidin-1-yl)propan-2-yl)-2-methylpyridine HCl]",< 10
3,"CC(=O)Nc1ccc(CN2CCC(/C=C/c3ccccc3)(c3ccccn3)CC2)cc1 [Compound 33, (E)-N-(4-((4-(pyridin-2-yl)-4-styrylpiperidin-1-yl)methyl)phenyl)acetamide]",> 10
4,"Cn1ccc(CN2CCC(CCc3ccccc3)(C3CCCO3)C2)n1 (stereo not drawn) [Compound 214, 1-methyl-3-((3-phenethyl-3-(tetrahydrofuran-2-yl)pyrrolidin-1-yl)methyl)-1H-pyrazole]",> 10
5,"c1ccc(CCC2(C3CCCO3)CCN(CCc3cccnc3)C2)cc1 (stereo not drawn) [Compound 248, 3-(2-(3-phenethyl-3-(tetrahydrofuran-2-yl)pyrrolidin-1-yl)ethyl)pyridine]",> 10
6,"C[C@H](O)[C@@]1(CCc2cccs2)CCN(Cc2cccnc2)C1 (single isomer, unassigned) [Compound 423]",< 10
7,"CCOC[C@@]1(CCc2cccs2)CCN(Cc2ccc(C)nc2)C1 [Compound 333, (S)-5-((3-(ethoxymethyl)-3-(2-(thiophen-2-yl)ethyl)pyrrolidin-1-yl)methyl)-2-methylpyridine]",< 10
8,"CCOCC1(CCc2ccc(F)cc2)CCN(Cc2ccc(C)nc2C)C1 (stereo not drawn) [Compound 311, 3-((3-(ethoxymethyl)-3-(4-fluoro-phenethyl)pyrrolidin-1-yl)methyl)-2,6-dimethylpyridine]",< 10
9,"COc1cc(CC[C@]2(CO)CCN(C(C)(C)c3ccc(C)nc3)C2)ccn1.Cl [Compound 369, (S)-(3-(2-(2-methoxypyridin-4-yl)ethyl)-1-(2-(6-methylpyridin-3-yl)propan-2-yl)pyrrolidin-3-yl)methanol HCl]",< 10
10,"Clc1cncc(CN2CCC(CCc3ccccc3)(C3CCCO3)C2)c1 (stereo not drawn) [Compound 243, 3-chloro-5-((3-phenethyl-3-(tetrahydrofuran-2-yl)pyrrolidin-1-yl)methyl)pyridine]",> 10
11,"CCOC[C@@]1(CCc2ccc(F)cn2)CCN(C(=O)c2ccc(C)nc2)C1 [Compound 380, (S)-(3-(ethoxymethyl)-3-(2-(5-fluoropyridin-2-yl)ethyl)pyrrolidin-1-yl)(6-methylpyridin-3-yl)methanone]",> 10
12,"CCOCC1(CCc2ccccc2)CCN(Cc2cccn2-c2cccnc2)C1 (stereo not drawn) [Compound 315, 3-(2-((3-(ethoxymethyl)-3-phenethylpyrrolidin-1-yl)methyl)-1H-pyrrol-1-yl)pyridine]",> 10
13,"CCOC[C@@]1(CCc2cc3c(s2)CCC3)CCN(C(C)(C)c2ccc(C)nc2)C1.Cl [Compound 362, (S)-5-(2-(3-(2-(5,6-dihydro-4H-cyclopenta[b]thiophen-2-yl)ethyl)-3-(ethoxy-methyl)pyrrolidin-1-yl)propan-2-yl)-2-methylpyridine HCl]",< 10
14,"CC(=O)Nc1ccc(CN2CCC(CCc3ccccc3)(C3(C)CCCCO3)CC2)cc1 (stereo not drawn) [Compound 165, N-(4-((4-(2-methyltetrahydro-2H-pyran-2-yl)-4-phenethylpiperidin-1-yl)methyl)phenyl)acetamide]",< 10
15,"CCCCC(=O)Nc1ccc(CN2CCC(CCc3ccccc3)(c3ccccn3)CC2)cc1 [Compound 20, N-(4-((4-phenethyl-4-(pyridin-2-yl)piperidin-1-yl)methyl)phenyl)pen-tanamide]",> 10
16,"CCOCC1(CCc2c(C)csc2C)CCN(Cc2cnn(C)c2)CC1 [Compound 282, 4-(2-(2,4-dimethylthiophen-3-yl)ethyl)-4-(ethoxymethyl)-1-((1-methyl-1H-pyrazol-4-yl)methyl)piperidine]",> 10
17,"Cc1ccc(CN2C3CCC2CC(CCc2cccs2)(c2ccccn2)C3)cn1 (stereo not drawn) [Compound 397, 8-((6-methylpyridin-3-yl)methyl)-3-(pyridin-2-yl)-3-(2-(thiophen-2-yl)ethyl)-8-azabicyclo[3.2.1]octane]",> 10
18,CCOCC1(CCc2ccccc2)CCN(Cc2cc(C)c(NC(C)=O)c(C)c2)CC1 [Compound 130],> 10
19,"Cn1nccc1CN1CCC(CCc2ccccc2)(C2CCCO2)C1 (stereo not drawn) [Compound 215, l-methyl-5-((3-phenethyl-3-(tetrahydrofuran-2-yl)pyrrolidin-1-yl)methyl)-1H-pyrazole]",< 10
20,"CCOCC1(CCc2cccnc2)CCN(C(C)c2ccc(C)nc2)C1 (stereo not drawn) [Compound 350, 5-(1-(3-(ethoxymethyl)-3-(2-(pyridin-3-yl)ethyl)pyrrolidin-1-yl)ethyl)-2-methylpyridine]",< 10
21,"CCOC[C@@]1(CCc2ccc(F)s2)CCN(Cc2cccnc2)C1 [Compound 345, (S)-3-((3-(ethoxymethyl)-3-(2-(5-fluorothiophen-2-yl)ethyl)pyrrolidin-1-yl)methyl)pyridine]",< 10
22,"CCOCC1(CCc2nc3ccccc3o2)CCN(Cc2cccnc2)C1 (stereo not drawn) [Compound 308, 2-(2-(3-(ethoxymethyl)-1-(pyridin-3-ylmethyl)pyrrolidin-3-yl)ethyl)benzo[d]oxazole]",> 10
23,"CCOC[C@@]1(CCc2ccc(C)s2)CCN(C(C)(C)c2ccc(C)nc2)C1 [Compound 373, (S)-5-(2-(3-(ethoxymethyl)-3-(2-(5-methylthiophen-2-yl)ethyl)pyrrolidin-1-yl)propan-2-yl)-2-methylpyridine]",< 10
24,"CCOCC1(CCc2ccccc2)CCCN(Cc2ccc(NC(C)=O)cc2)CC1 (stereo not drawn) [Compound 98, N-(4-((4-(ethoxymethyl)-4-phenethylazepan-1-yl)methyl)phenyl)acetamide]",> 10
25,"CCOC[C@@]1(CCc2cc(C)cs2)CCN(Cc2ccc(C)nc2C)C1 [Compound 329, (S)-3-((3-(ethoxymethyl)-3-(2-(4-methylthiophen-2-yl)ethyl)pyrrolidin-1-yl)methyl)-2,6-dimethylpyridine]",< 10
26,"CCOCC1(CCc2ccccc2)CCN(Cc2ccc(-c3ncon3)cc2)CC1.Cl [Compound 136, 3-(4-((4-(ethoxymethyl)-4-phenethylpiperidin-1-yl)methyl)phenyl)-1,2,4-oxadiazole HCl]",> 10
27,"CCOC[C@@]1(CCc2ccccn2)CCN(C(C)(C)c2ccc(C)nc2)C1 [Compound 359, (S)-5-(2-(3-(ethoxymethyl)-3-(2-(pyridin-2-yl)ethyl)pyrrolidin-1-yl)propan-2-yl)-2-methylpyridine]",< 10
28,"CCOCC1(CCc2cc(C)cs2)CCN(Cc2ccc(C)nc2)CC1 [Compound 299, 5-((4-(ethoxymethyl)-4-(2-(4-methylthiophen-2-yl)ethyl)piperidin-1-yl)methyl)-2-methylpyridine]",< 10
29,"CC(=O)Nc1ccc(CN2CCC(/C=C/c3ccccc3)(c3cccc(F)n3)CC2)cc1 [Compound 47, (E)-N-(4-((4-(6-fluoropyridin-2-yl)-4-styrylpiperidin-1-yl)methyl)phenyl)acetamide]",> 10
30,"CCOC[C@@]1(CCc2csc(C)c2)CCN(Cc2ccc(C)nc2C)C1 [Compound 330, (S)-3-((3-(ethoxymethyl)-3-(2-(5-methylthiophen-yl)ethyl)pyrrolidin-1-yl)methyl)-2,6-dimethylpyridine]",< 10
